The numbers were not newly measured in patent US20130210031A1 (priority 2010, published 2013), which cites them from elsewhere.

SMILES strings stand for the structures.

This data set concerns the target EF (Bacillus anthracis, UniProt P40136).

Sequence of EF (P40136 whole entry, looked up): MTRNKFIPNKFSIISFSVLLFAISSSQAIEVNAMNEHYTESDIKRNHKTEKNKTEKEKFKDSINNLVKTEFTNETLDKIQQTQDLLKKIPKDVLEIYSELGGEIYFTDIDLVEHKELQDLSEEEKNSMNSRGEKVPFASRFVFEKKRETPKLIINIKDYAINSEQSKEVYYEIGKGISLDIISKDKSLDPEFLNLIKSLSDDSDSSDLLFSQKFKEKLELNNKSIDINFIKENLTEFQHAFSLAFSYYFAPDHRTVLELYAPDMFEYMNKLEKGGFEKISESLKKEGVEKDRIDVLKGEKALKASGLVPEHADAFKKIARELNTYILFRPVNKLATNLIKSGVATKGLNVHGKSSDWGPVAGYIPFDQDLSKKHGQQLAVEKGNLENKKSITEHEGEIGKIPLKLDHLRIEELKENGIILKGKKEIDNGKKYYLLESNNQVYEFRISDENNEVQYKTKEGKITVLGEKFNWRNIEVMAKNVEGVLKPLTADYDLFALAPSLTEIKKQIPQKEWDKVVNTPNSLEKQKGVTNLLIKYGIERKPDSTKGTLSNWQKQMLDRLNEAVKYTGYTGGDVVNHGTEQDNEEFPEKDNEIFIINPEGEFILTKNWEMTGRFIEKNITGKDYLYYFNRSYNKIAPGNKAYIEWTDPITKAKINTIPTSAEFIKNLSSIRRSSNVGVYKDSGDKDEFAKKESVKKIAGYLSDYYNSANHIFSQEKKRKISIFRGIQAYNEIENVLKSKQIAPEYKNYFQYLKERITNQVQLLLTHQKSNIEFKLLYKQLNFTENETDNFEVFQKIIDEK

Consider `CC(C)(C)C(=O)OCOP(=O)(COCCn1cnc2c(N)ncnc21)OCOC(=O)C(C)(C)C` [adefovir dipivoxil], for which the EF inhibitor potency result was “potent EF inhibitor”.
